Assay results reported in patent US9340530B2, “Preparation and use of bicyclic himbacine derivatives as PAR-1 receptor antagonists” (Merck, Sharp & Dohme Corp., priority 2012, dated 2016).

Legend:
[1] = molecular target: thrombin receptor (PAR-1 receptor) (Homo sapiens (Human), UniProt P25116); experiment: High throughput thrombin receptor radioligand binding assay ([3H]haTRAP, platelet membranes); details: [3H]haTRAP binding to platelet membranes
Description: The following binding assays were used to determine the ability of the inventive compounds to inhibit the PAR-1 receptor.
A(pF-F)R(ChA)(hR)(I2—Y)—NH2 (1.03 mg) and 10% Pd/C (5.07 mg) were suspended in DMF (250 μl) and diisopropylethylamine (10 μL). The vessel was attached to the tritium line, frozen in liquid nitrogen and evacuated. Tritium gas (342 mCi) was then added to the flask, which was stirred at room temperature for 2 hours. At the completion of the reaction, the excess tritium was removed and the reacted peptide solution was diluted with DMF (0.5 ml) and filtered to remove the catalyst. The collected DMF solution of the crude peptide was diluted with water and freeze dried to remove the labile tritium. The solid peptide was redissolved in water and the freeze drying process repeated. The tritiated peptide ([^3H]haTRAP) was dissolved in 0.5 ml of 0.1% aqueous TFA and purified by HPLC using the following conditions: column, Vydac™ C18, 25 cm×9.4 mm I.D.; mobile phase, (A) 0.1% TFA in water, (B) 0.1% TFA in CH3CN; gradient, (A/B) from 100/0 to 40/60 over 30 min; flow rate, 5 ml/min; detection, UV at 215 nm. The radiochemical purity of [^3H]haTRAP was 99% as analyzed by HPLC. A batch of 14.9 mCi at a specific activity of 18.4 Ci/mmol was obtained.
Platelet membranes were prepared using a modification of the method of Natarajan et al. (Natarajan et al, Int. J. Peptide Protein Res. 45:145-151 (1995)) from 20 units of platelet concentrates obtained from the North Jersey Blood Center (East Orange, N.J.) within 48 hours of collection. All steps were carried out at 4° C. under approved biohazard safety conditions. Platelets were centrifuged at 100×g for 20 minutes at 4° C. to remove red cells. The supernatants were decanted and centrifuged at 3000×g for 15 minutes to pellet platelets. Platelets were re-suspended in 10 mM Tris-HCl, pH 7.5, 150 mM NaCl, 5 mM EDTA, to a total volume of 200 ml and centrifuged at 4400×G for 10 minutes. This step was repeated two additional times. […] Protein concentration was determined by a Lowry assay (Lowry et al., J. Biol. Chem., 193:265-275 (1951)). […]

[2] = molecular target: PAR1 (Homo sapiens (Human), UniProt P25116); experiment: Par-1 FLIPR assay (calcium, HEK 293 cells, PAR1 activating peptide); format: cell-based; details: PAR1 selective receptor-activating peptide at 80% activation
Description: HEK 293 Cells were grown in media containing DMEM, 10% FBS pen/strep/L-Glutamine and non-essential amino acids. The cells were plated in 384-well PDL coated plates at 12000 cells/well and incubated overnight at 37° C./5% CO2. Media was then removed from the cells, which were then incubated with buffer (Hank's containing HEPES and Chaps) containing FLIPR calcium-5 dye, made with buffer containing probenecid, for 60 minutes at 37° C. Varying concentrations of compound in a final concentration of 5% DMSO were then added to the cells and incubated at 25° C. for 30 minutes. […] The FLIPR reads at an excitation wavelength of 480 nm and an emission wavelength of 535 nm, and performs 60 scans over a 1-2 min reading time. The data were analyzed by taking the peak signal over a portion of the range of the 60 scans and dividing this signal by the minimum signal for that same range.

Chain of thrombin receptor (PAR-1 receptor) (P25116 22-425): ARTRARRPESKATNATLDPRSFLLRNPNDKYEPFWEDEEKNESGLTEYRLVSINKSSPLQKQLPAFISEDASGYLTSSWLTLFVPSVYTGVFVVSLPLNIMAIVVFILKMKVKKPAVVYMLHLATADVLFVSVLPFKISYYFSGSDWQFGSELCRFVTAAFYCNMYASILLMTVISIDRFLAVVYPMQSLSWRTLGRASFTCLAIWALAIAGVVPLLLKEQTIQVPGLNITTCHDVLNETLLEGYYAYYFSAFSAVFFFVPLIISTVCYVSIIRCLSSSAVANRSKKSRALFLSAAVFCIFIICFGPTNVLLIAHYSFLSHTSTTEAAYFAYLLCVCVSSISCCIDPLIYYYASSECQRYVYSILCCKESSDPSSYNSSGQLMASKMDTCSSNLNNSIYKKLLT
Chain of PAR1 (P25116 22-425): as above

`C[C@H]1OC(=O)C2CC(F)(F)[C@@H](C)[C@H](/C=C/c3ccc(-c4cccc(F)c4)cn3)C21` (stereo partly shown) [Example 2] gave a Ki [1] of 3 nM and an IC50 [2] of 5.01 nM.
For `C[C@H]1OC(=O)[C@]2(O)CC(F)(F)[C@@H](C)[C@H](/C=C/c3ccc(-c4cccc(F)c4)cn3)[C@H]12` [Example 10], the Ki [1] was 3 nM and the IC50 [2] was 8.1 nM.
`C[C@H]1OC(=O)[C@]2(C(=O)NCCO)CC(F)(F)[C@@H](C)[C@H](/C=C/c3ccc(-c4cccc(F)c4)cn3)[C@H]12` [Example 13] showed a Ki [1] of 3 nM and an IC50 [2] of 17 nM.
`CC1[C@H](/C=C/c2ccc(-c3ccccc3C#N)cn2)C2[C@@H](C)OC(=O)[C@@]2(NC(=O)c2ccn(C)n2)CC1(F)F` (stereo partly shown) [Example 67] was tested, and the IC50 [2] was 3.7 nM.
`C[C@H]1OC(=O)[C@]2(S(C)(=O)=O)CC(F)(F)[C@@H](C)[C@H](/C=C/c3ccc(-c4ccccc4C#N)cn3)[C@H]12` [Example 70] showed an IC50 [2] of 15.6 nM.
For `C[C@H]1OC(=O)[C@]2(Br)CC(F)(F)[C@@H](C)[C@H](/C=C/c3ccc(-c4ccccc4C#N)cn3)[C@H]12` [Example 71], the IC50 [2] was 4.8 nM.
`CO[C@@]12CC(F)(F)[C@@H](C)[C@H](/C=C/c3ccc(-c4ccccc4C#N)cn3)[C@@H]1[C@@H](C)OC2=O` [Example 72] gave an IC50 [2] of 2.5 nM.
`Cc1cccc(-c2ccc(/C=C/[C@@H]3[C@@H]4[C@@H](C)OC(=O)[C@]4(N)CC(F)(F)[C@H]3C)nc2)c1C#N` [Example 73] showed an IC50 [2] of 3.3 nM.
With `C[C@H]1OC(=O)[C@]2(N)CC(F)(F)[C@@H](C)[C@H](/C=C/c3ccc(-c4ccccc4-c4nnn[nH]4)cn3)[C@H]12` [Example 74] the IC50 [2] was 872 nM.
`C[C@H]1OC(=O)[C@]2(CN)CC(F)(F)[C@@H](C)[C@H](/C=C/c3ccc(-c4ccccc4C#N)cn3)[C@H]12` [Example 76] was tested, and the IC50 [2] was 2.3 nM.
